Values of other authors in patent publication US20260272857A1, “AN ORALLY RAPIDLY DISINTEGRATING TABLET OF PROPRANOLOL AND ITS PROCESS OF PREPARATION” (NOVUMGEN LIMITED, priority 2023, published 2026).
Counter-ions that a name gives are not always drawn.

Key:
[1] = high permeability and high solubility drug
[2] = in vivo

Row | Structure (SMILES) | BCS class in the Biopharmaceutical classification system [1] | Elimination half-life [2] [h] | Plasma half-life [2] [h]
1 | CC(C)NCC(O)COc1cccc2ccccc12 (stereo not drawn) [Propranolol hydrochloride] | BCS class I |  | 
2 | CC(C)NCC(O)COc1cccc2ccccc12 (stereo not drawn) [propranolol, 1-naphthalen-1-yloxy-3-(propan-2-ylamino) propan-2-ol] |  | 8 | 3 to 6
